Data published in PMC6099493, “Discovery of Matrinic Thiadiazole Derivatives as a Novel Family of Anti-Liver Fibrosis Agents via Repression of the TGFβ/Smad Pathway” (Molecules : A Journal of Synthetic Chemistry and Natural …, 2018).
Structures can show the parent of a compound that is named as a salt.

Key:
COL1A1 promotor = COL1A1 promotor single luciferase reporter gene model in LX-2 (LX2-COL) cells; type: cell-based, human; conditions: LX-2 cells treated simultaneously with TGFβ1 and compound; for inhibition at 40 µM: Homo sapiens, read-out: Inhibition Percentage (inhibition rate of COL1A1 promotor's activity in LX2 cells)
[1] = MTT cytotoxicity / cell survival assay; type: cell-based; conditions: human, HepG2 cells, read-out: CC50 (cytotoxic concentration required to inhibit HepG2 cell growth by 50%)
Procedure: A single luciferase reporter gene detection model was applied to screen the inhibitory effects towards COL1A1 promotor of all target compounds in human hepatic stellate LX-2 cells at the concentration of 40 μM, taking EGCG and compound 1 as the positive controls. The LX2-COL monoclone cell line was treated simultaneously with TGFβ1 and a target compound [13]. The cytotoxicity was determined using MTT assay in HepG2 cells.
The cell survival was evaluated by MTT assay. HepG2 cells were seeded at density of 6 × 10^3 cells/well in 96-well plate. Cells were treated with various concentrations of matrinic derivate until the cells at 50% confluence. After 24 h of incubation, 20 µL of the MTT (5 mg/mL) solution was added into each plate and incubated for 4 h at 37 °C, 5% CO2. Subsequently, the culture supernatant was replaced with 150 µL DMSO to dissolve the formazan crystal. The absorbance at 570 nm was measured using a microplate reader (ELx800, BioTek Instruments, Winooski, VT, USA).

COL1A1 mRNA = COL1A1 mRNA level by real-time PCR in TGFβ1-stimulated LX-2 cells; type: cell-based, human; conditions: 80 μM, TGFβ1 2 ng/mL
Procedure: (§1) Next, compounds 6i, 6l and 6n were chosen as the key compounds to verify their inhibitory effects against COL1A1. LX-2 cells were stimulated with TGFβ1 (2 ng/mL), and then treated with compounds 6i, 6l and 6n (80 μM) respectively, taking 1 as the control. Their anti-COL1A1 effects were evaluated on RNA level by real-time PCR amplification. […] Then their anti-COL1A1 effects were investigated on the protein level by western blot assays.
(§2) LX-2 cells were seeded in 6-well plate, cultured in DMEM, containing 10% fetal bovine serum (FBS) in a 5% CO2 atmosphere at 37 °C. And serum-free culture was required until the cells at 90–95% confluence. After 24 h, cells were treated with TGFβ1 (2 ng/mL) and matrinic derivatives (80 μM) for 24 h. Total RNA from the LX-2 cells was extracted using Trizol reagent, purified by NucleoSpin RNA Clean-up. Reverse transcription was performed with a Transcriptor first strand cDNA synthesis kit. The cDNA was then analysis by ABI 7500 Fast Real-Time PCR System (ThermoFisher Scientific, Singapore) using TaqMan probes of TGFβ1, COL1A1, α-SMA, and GAPDH (sequence reserved by ABI, Foster City, CA ,USA) and FastStart Universal Probe master mix (Roche, Indianapolis, IN, USA).

COL1A1 protein = COL1A1 protein level by western blot in LX-2 cells; type: cell-based; conditions: Homo sapiens, TGFβ1 2 ng/mL, read-out: COL1A1 protein level inhibition rate
Procedure: as §1
(§3) LX-2 cells were cultured as described above. Briefly, cells were washed with phosphate-buffered saline (PBS) and were lysed in radioimmunoprecipitation assay (RIPA) lysis for 30 min in 4 °C; the supernatant was collected after centrifugation at 12,000× g, 4 °C for 15 min. Equal amounts of protein were quantified with Bradford assay, separated by SDS-PAGE and transferred to polyvinylidene difluoride membrane. The membranes were blocked for one hour at room temperature in PBST containing 5% milk and probed with specific first antibodies overnight at room temperature. Membrane was washed 3 times by PBST, followed by horseradish peroxidase-conjugated secondary antibodies and GAPDH. The proteins were visualized using chemiluminescence reagents.

α-SMA mRNA = α-SMA mRNA level by real-time PCR in TGFβ1-stimulated LX-2 cells; type: cell-based, human; conditions: 80 μM, TGFβ1 2 ng/mL
Procedure: (§4) α-SMA is a more commonly recognized indicator for liver fibrosis, and it could be induced by a stimulation of TGFβ1 [22], therefore, the amounts of α-SMA were also evaluated.
as §2

α-SMA protein = α-SMA protein level by western blot in LX-2 cells; type: cell-based; conditions: Homo sapiens, TGFβ1 2 ng/mL, read-out: α-SMA protein level inhibition rate
Procedure: as §4, §3

[2] = test system: Smad2 / phosphorylated Smad2 (TGFβ/Smad pathway); experiment: Smad2 and p-Smad2 levels by western blot in LX-2 cells; type: cell-based, human
Procedure: Considering the key role of TGFβ/Smad pathway in activating COL1A1, the effects of the three compounds on Smad and phosphorylated Smad were then evaluated.
as §3

SMILES | melting point | inhibition at 40 µM (COL1A1 promotor) | further results
CN(C)c1nnc(CCCC2C3CCCN4CCCC(CN2Cc2ccccc2)C34)s1 (stereo not drawn) (as salt: hydrochloride) [Compound 6k, 12-N-Benzyl-3′-(N,N-dimethyl-5-amino-1,3,4-thiadiazol-2-yl)-matrinic propane hydrochloride] | 189 to 190 °C |  | 
Cc1ccc(S(=O)(=O)N2CC3CCCN4CCCC(C34)C2CCCC(=O)O)cc1 (stereo not drawn) [Compound 1, 12-N-p-Methylbenzenesulfonyl matrinic acid] | 239 to 240 °C | 18.5% | CC50 at 24 h [1]: > 320 µM; COL1A1 mRNA level inhibitory rate (COL1A1 mRNA): 41.9%; inhibition at 80 µM (COL1A1 protein): 16.2%; α-SMA mRNA level inhibitory rate (α-SMA mRNA): 69.7%; inhibition at 80 µM (α-SMA protein): 28.9%
O=C(O)CCCC1C2CCCN3CCCC(CN1S(=O)(=O)c1ccc(C(F)(F)F)cc1)C23 (stereo not drawn) [Compound 5a] |  | -3.7% | 
O=C(O)CCCC1C2CCCN3CCCC(CN1Cc1ccccc1)C23 (stereo not drawn) [Compound 5b, 12-N-Benzyl matrinic acid] | 95 to 96 °C | -33.6% | 
Cc1ccc(CN2CC3CCCN4CCCC(C2CCCC(=O)O)C34)cc1 (stereo not drawn) [Compound 5c, 12-N-p-Methylbenzyl matrinic acid] | 106 to 108 °C | -116% | 
O=C(O)CCCC1C2CCCN3CCCC(CN1Cc1ccc(Br)cc1)C23 (stereo not drawn) [Compound 5d, 12-N-p-Bromobenzyl matrinic acid] | 134 to 135 °C | 6.4% | 
Cc1ccc(S(=O)(=O)N2CC3CCCN4CCCC(C34)C2CCCc2nnc(N)s2)cc1 (stereo not drawn) [Compound 6a, 12-N-p-Methlybenzenesulfonyl-3′-(5-amino-1,3,4-thiadiazol-2-yl)-matrinic propane] | 237 °C (dec.) | 21.2% | CC50 at 24 h [1]: > 320 µM
CNc1nnc(CCCC2C3CCCN4CCCC(CN2S(=O)(=O)c2ccc(C)cc2)C34)s1 (stereo not drawn) [Compound 6b, 12-N-p-Mmethlybenzenesulfonyl-3′-(N-methyl-5-amino-1,3,4-thiadiazol-2-yl)-matrinic propane] | 169 to 170 °C | 12.8% | 
Cc1ccc(S(=O)(=O)N2CC3CCCN4CCCC(C34)C2CCCc2nnc(NC(C)C)s2)cc1 (stereo not drawn) [Compound 6c, 12-N-p-Methylbenzenesulfonyl-3′-(N-iso-propyl-5-amino-1,3,4-thiadiazol-2-yl)-matrinic propane] | 193 to 194 °C | -84.2% | 
Cc1ccc(S(=O)(=O)N2CC3CCCN4CCCC(C34)C2CCCc2nnc(N(C)C)s2)cc1 (stereo not drawn) [Compound 6d, 12-N-p-Methylbenzenesulfonyl-3′-(N,N-dimethyl-5-amino-1,3,4-thiadiazol-2-yl)-matrinic propane] | 142 to 143 °C | -36.7% | 
Nc1nnc(CCCC2C3CCCN4CCCC(CN2S(=O)(=O)c2ccc(C(F)(F)F)cc2)C34)s1 (stereo not drawn) [Compound 6f, 12-N-p-Ttrifluoromethlybenzenesulfonyl-3′-(5-amino-1,3,4-thiadiazol-2-yl)-matrinic propane] | 206 °C (dec.) | -19% | 
CNc1nnc(CCCC2C3CCCN4CCCC(CN2S(=O)(=O)c2ccc(C(F)(F)F)cc2)C34)s1 (stereo not drawn) [Compound 6g, 12-N-p-Trifluoromethlybenzenesulfonyl-3′-(N-methyl-5-amino-1,3,4-thiadiazol-2-yl)-matrinic propane] | 181 °C (dec.) | 6.1% | 
CN(C)c1nnc(CCCC2C3CCCN4CCCC(CN2S(=O)(=O)c2ccc(C(F)(F)F)cc2)C34)s1 (stereo not drawn) [Compound 6h, 12-N-p-Trifluoromethlybenzenesulfonyl-3′-(N,N-dimethyl-5-amino-1,3,4-thiadiazol-2-yl)-matrinic propane] | 147 to 148 °C | -35.2% | 
CNc1nnc(CCCC2C3CCCN4CCCC(CN2Cc2ccccc2)C34)s1 (stereo not drawn) [Compound 6j, 12-N-Benzyl-3′-(N-methyl-5-amino-1,3,4-thiadiazol-2-yl)-matrinic propane] | 137 to 138 °C | 29.5% | 
CN(C)c1nnc(CCCC2C3CCCN4CCCC(CN2Cc2ccccc2)C34)s1 (stereo not drawn) [Compound 6k, 12-N-Benzyl-3′-(N,N-dimethyl-5-amino-1,3,4-thiadiazol-2-yl)-matrinic propane hydrochloride] |  | 15.2% | 
Cc1ccc(CN2CC3CCCN4CCCC(C2CCCc2nnc(N)s2)C34)cc1 (stereo not drawn) [Compound 6l, 12-N-p-Methylbenzyl-3′-(5-amino-1,3,4-thiadiazol-2-yl)-matrinic propane] | 167 to 168 °C | 38.7% | CC50 at 24 h [1]: > 320 µM; inhibition at 80 µM (COL1A1 protein): 99.3%; α-SMA mRNA level inhibitory rate (α-SMA mRNA): 82.5%; inhibition at 80 µM (α-SMA protein): 93.8%; Effect on Smad level [2]: did not affect the Smad level; Effect on phosphorylation level of Smad2 (in words) [2]: repressed the phosphorylation level of Smad2 significantly
CNc1nnc(CCCC2C3CCCN4CCCC(CN2Cc2ccc(C)cc2)C34)s1 (stereo not drawn) [Compound 6m, 12-N-p-Methylbenzyl-3′-(N-methyl-5-amino-1,3,4-thiadiazol-2-yl)-matrinic propane] | 163 to 164 °C | -29.6% | 
Nc1nnc(CCCC2C3CCCN4CCCC(CN2Cc2ccc(Br)cc2)C34)s1 (stereo not drawn) [Compound 6o, 12-N-p-Bromobenzyl-3′-(5-amino-1,3,4-thiadiazol-2-yl)-matrinic propane] | 193 to 194 °C | 7.8% | 
CC(=O)Nc1nnc(CCCC2C3CCCN4CCCC(CN2S(=O)(=O)c2ccc(C)cc2)C34)s1 (stereo not drawn) [Compound 7a, 12-N-p-Methylblenzenesulfonyl-3′-(5-acetylamino-1,3,4-thiadiazol-2-yl)-matrinic propane] | 273 °C (dec.) | 33.9% | 
CC(=O)Nc1nnc(CCCC2C3CCCN4CCCC(CN2S(=O)(=O)c2ccc(C(F)(F)F)cc2)C34)s1 (stereo not drawn) [Compound 7b, 12-N-p-Trifluoromethlybenzenesulfonyl-3′-(5-acetylamino-1,3,4-thiadiazol-2-yl)-matrinic propane] | 197 °C (dec.) | -6% | 
CC(=O)Nc1nnc(CCCC2C3CCCN4CCCC(CN2Cc2ccccc2)C34)s1 (stereo not drawn) [Compound 7c, 12-N-Benzyl-3′-(5-acetylamino-1,3,4-thiadiazol-2-yl)-matrinic propane] | 188 to 189 °C | 12.9% | 
CC(=O)Nc1nnc(CCCC2C3CCCN4CCCC(CN2Cc2ccc(C)cc2)C34)s1 (stereo not drawn) [Compound 7d, 12-N-p-Methylbenzyl-3′-(5-acetylamino-1,3,4-thiadiazol-2-yl)-matrinic propane] | 226 °C (dec.) | 27% | 
O=C(O[C@@H]1Cc2c(O)cc(O)cc2O[C@@H]1c1cc(O)c(O)c(O)c1)c1cc(O)c(O)c(O)c1 [EGCG, epigallocatechin gallate, reference compound] |  |  | Inhibition Percentage (inhibition rate of COL1A1 promotor's activity in LX2 cells) (COL1A1 promotor; 40 μM): 27.5% ± 7.9%
